Reference: the supplement of paper PMC5908809

What was measured:
YT (IL-2 2.5 ng/mL) [1] = assay: percent inhibition of viability; higher = more inhibition; conditions: 72 h
NK-YS (IL-2 2.5 ng/mL) [2] = assay: as above; conditions: 72 h
KHYG-1 (IL-2 2.5 ng/mL) [3] = assay: as above; conditions: 72 h
KAI3 (IL-2 2.5 ng/mL) [4] = assay: as above; conditions: 72 h
[5] = tested on: normal primary NK cells, pool 3 (3 donors) (IL-2 2.5 ng/mL); assay: as above; conditions: 72 h
NK-92 (IL-2 2.5 ng/mL) [6] = assay: as above; conditions: 72 h
SNK-6 (IL-2 2.5 ng/mL) [7] = assay: as above; conditions: 72 h
DERL-7 (IL-2 2.5 ng/mL) [8] = assay: as above; conditions: 72 h
[9] = tested on: normal primary NK cells, pool 1 (3 donors) (IL-2 2.5 ng/mL); assay: as above; conditions: 72 h
NKL (IL-2 2.5 ng/mL) [10] = assay: as above; conditions: 72 h
[11] = tested on: normal primary NK cells, pool 1 (3 donors), resting (IL-2 0 ng/mL); assay: as above; conditions: 72 h
IMC-1 (IL-2 20 ng/mL) [12] = assay: as above; conditions: 72 h
[13] = tested on: normal primary NK cells, pool 2 (3 donors) (IL-2 2.5 ng/mL); assay: as above; conditions: 72 h
[14] = tested on: normal NK cells expanded with K562-aAPC; assay: as above; conditions: 72 h, IL-2 2.5 ng/mL
Protocol: (§1)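 Drug sensitivity and resistance testing on K562-aAPC-expanded normal NK cells: 5 concentrations (10-fold steps over a 10,000-fold range), 72 h at 37 °C, viability by CellTiter-Glo normalised to DMSO and benzethonium chloride controls; DSS from the fitted curve.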

YT (IL-2 2.5 ng/mL) [15] = assay: drug sensitivity score (DSS) (DSS units); higher = more sensitive; extreme values may be limits of the assay; conditions: 72 h
NK-YS (IL-2 2.5 ng/mL) [16] = assay: as above; conditions: 72 h
KHYG-1 (IL-2 2.5 ng/mL) [17] = assay: as above; conditions: 72 h
KAI3 (IL-2 2.5 ng/mL) [18] = assay: as above; conditions: 72 h
[19] = tested on: normal primary NK cells, pool 3 (3 donors) (IL-2 2.5 ng/mL); assay: as above; conditions: 72 h
NK-92 (IL-2 2.5 ng/mL) [20] = assay: as above; conditions: 72 h
SNK-6 (IL-2 2.5 ng/mL) [21] = assay: as above; conditions: 72 h
DERL-7 (IL-2 2.5 ng/mL) [22] = assay: as above; conditions: 72 h
[23] = tested on: normal primary NK cells, pool 1 (3 donors) (IL-2 2.5 ng/mL); assay: as above; conditions: 72 h
NKL (IL-2 2.5 ng/mL) [24] = assay: as above; conditions: 72 h
[25] = tested on: normal primary NK cells, pool 1 (3 donors), resting (IL-2 0 ng/mL); assay: as above; conditions: 72 h
IMC-1 (IL-2 20 ng/mL) [26] = assay: as above; conditions: 72 h
[27] = tested on: normal primary NK cells, pool 2 (3 donors) (IL-2 2.5 ng/mL); assay: as above; conditions: 72 h
[28] = tested on: normal NK cells expanded with K562-aAPC; assay: as above; conditions: 72 h; IL-2 2.5 ng/mL
Protocol: as §1

CCc1cc(Nc2nccc(-c3c(-c4ccc(OC)c(C(=O)Nc5c(F)cccc5F)c4)nc4ccccn34)n2)c(OC)cc1N1CCC(N2CCN(S(C)(=O)=O)CC2)CC1 (max concentration tested 10000 nM)
percent inhibition of viability [%]
Conditions	1 nM	10 nM	100 nM	1000 nM	10000 nM
DERL-7 (IL-2 2.5 ng/mL) [8]	-3.29	4.96	-4.2	9.43	2.99
IMC-1 (IL-2 20 ng/mL) [12]	-4.74	-7.3	-8.28	-4.78	-4.76
KAI3 (IL-2 2.5 ng/mL) [4]	12.8	4.45	3.16	-0.26	-1.06
KHYG-1 (IL-2 2.5 ng/mL) [3]	-1.04	-3.94	-1.22	-2.02	-0.15
NK-92 (IL-2 2.5 ng/mL) [6]	-8.65	-15.5	0.66	9.19	19.7
NK-YS (IL-2 2.5 ng/mL) [2]	-1.69	-4.53	2.55	3.02	7.23
NKL (IL-2 2.5 ng/mL) [10]	-12.8	-7.57	-8.59	-4.55	-4.74
SNK-6 (IL-2 2.5 ng/mL) [7]	-2.73	-8.81	-9.86	-16	-27.5
YT (IL-2 2.5 ng/mL) [1]	2.55	-0.94	2.88	-1.24	0.54
[5]	1.45	1.94	-1.25	-1.57	-1.55
[9]	-5.95	-3.54	3.36	-0.74	-0.37
[11]	-6.68	-7.72	5.14	4.15	11.5
[13]	-9.34	1.62	-10.3	-0.25	-11.9
[14]	-0.94	-0.53	-2.18	1.87	0.97

Conditions	drug sensitivity score
DERL-7 (IL-2 2.5 ng/mL) [22]	0
IMC-1 (IL-2 20 ng/mL) [26]	0
KAI3 (IL-2 2.5 ng/mL) [18]	0
KHYG-1 (IL-2 2.5 ng/mL) [17]	0
NK-92 (IL-2 2.5 ng/mL) [20]	1.41
NK-YS (IL-2 2.5 ng/mL) [16]	0
NKL (IL-2 2.5 ng/mL) [24]	0
SNK-6 (IL-2 2.5 ng/mL) [21]	0
YT (IL-2 2.5 ng/mL) [15]	0
[19]	0
[23]	0
[25]	0
[27]	0
[28]	0
